Assay results published in ChEMBL document CHEMBL3603836, “Hybrid pyrimidine alkynyls inhibit the clinically resistance related Bcr-Abl(T315I) mutant” (Bioorg Med Chem Lett, 2015).

Columns and labels:
Bcr/Abl fusion protein [1] = biological target: Bcr/Abl fusion protein (Homo sapiens, UniProt P00519, T315I); type: protein assay
cells = settings: Mus musculus, BaF3, 72 h
Bcr/Abl fusion protein [2] = biological target: Bcr/Abl fusion protein (Homo sapiens, UniProt P00519); type: protein assay
Description: Inhibition of wild type Bcr-Abl (unknown origin) using Tyr2 peptide substrate after 2 hrs by FRET-based Z'-lyte assay

K562 = assay: cells; settings: Homo sapiens, K562, 72 h
Description: Antiproliferative activity against human K562 cells expressing wild type Bcr-Abl after 72 hrs by CCK-8 assay

[3] = Antiproliferative activity against mouse BA/F3 cells expressing wild type Bcr-Abl after 72 hrs by CCK-8 assay; type: functional, cell-based; settings: BaF3, 72 h
Rattus norvegicus [4] = assay: AUC (0 to infinity) in Sprague-Dawley rat at 25 mg/kg, po; type: ADME, organism-based; set-up: dose 25 mg/kg, time infinity, route oral; settings: in vivo
[5] = Tmax in Sprague-Dawley rat at 10 mg/kg, iv; type: ADME, organism-based; settings: in vivo
Rattus norvegicus [6] = assay: AUC (0 to infinity) in Sprague-Dawley rat at 10 mg/kg, iv; type: ADME, organism-based; set-up: dose 10 mg/kg, time infinity, route intravenous; settings: in vivo
[7] = Tmax in Sprague-Dawley rat at 25 mg/kg, po; type: ADME, organism-based; settings: in vivo
[8] = Cmax in Sprague-Dawley rat at 10 mg/kg, iv; type: ADME, organism-based; set-up: dose 10 mg/kg, route intravenous; settings: in vivo
[9] = Half life in Sprague-Dawley rat at 25 mg/kg, po; type: ADME, organism-based; settings: in vivo
[10] = Half life in Sprague-Dawley rat at 10 mg/kg, iv; type: ADME, organism-based; settings: in vivo
[11] = Cmax in Sprague-Dawley rat at 25 mg/kg, po; type: ADME, organism-based; set-up: dose 25 mg/kg, route oral; settings: in vivo

IC50 (Bcr/Abl fusion protein [1]) | IC50 (cells) | IC50 (Bcr/Abl fusion protein [2]) | IC50 (K562) | AUC (Rattus norvegicus [4]) | Tmax [5] | AUC (Rattus norvegicus [6]) | Tmax [7] | Cmax [8] | half-life [9] | half-life [10] | Cmax [11] | SMILES | IC50 [3]
187 nM | 1160 nM | 125 nM | 27 nM |  |  |  |  |  |  |  |  | Cc1cn(-c2cc(NC(=O)c3ccc(C)c(C#Cc4cnc(NC(C)C)nc4)c3)cc(C(F)(F)F)c2)cn1 | 23 nM
161 nM | 2400 nM | 238 nM | 111 nM |  |  |  |  |  |  |  |  | Cc1cn(-c2cc(NC(=O)c3ccc(C)c(C#Cc4cnc(Nc5ccccc5)nc4)c3)cc(C(F)(F)F)c2)cn1 | 208 nM
19 nM | 113 nM | 30 nM | 6 nM |  |  |  |  |  |  |  |  | CCNc1ncc(C#Cc2cc(C(=O)Nc3cc(-n4cnc(C)c4)cc(C(F)(F)F)c3)ccc2C)cn1 | 8 nM
 |  |  | 22 nM |  |  |  |  |  |  |  |  | Cc1cn(-c2cc(NC(=O)c3ccc(C)c(Nc4nccc(-c5cccnc5)n4)c3)cc(C(F)(F)F)c2)cn1 [NILOTINIB] | 

The remaining lines, values behind:

SMILES | IC50 (Bcr/Abl fusion protein [1]) | IC50 (cells) | IC50 (Bcr/Abl fusion protein [2]) | IC50 (K562) | AUC (Rattus norvegicus [4]) | Tmax [5] | AUC (Rattus norvegicus [6]) | Tmax [7] | Cmax [8] | half-life [9] | half-life [10] | Cmax [11] | IC50 [3]
Cc1cn(-c2cc(NC(=O)c3ccc(C)c(C#Cc4cnc(N5CCCCC5)nc4)c3)cc(C(F)(F)F)c2)cn1 | > 1000 nM | > 10000 nM | 904 nM | 640 nM |  |  |  |  |  |  |  |  | 683 nM
Cc1cn(-c2cc(NC(=O)c3ccc(C)c(C#Cc4cnc(N5CCCC5)nc4)c3)cc(C(F)(F)F)c2)cn1 | > 1000 nM | > 10000 nM | > 1000 nM | > 925 nM |  |  |  |  |  |  |  |  | > 1000 nM
Cc1cn(-c2cc(NC(=O)c3ccc(C)c(C#Cc4cnc(NC(C)(C)C)nc4)c3)cc(C(F)(F)F)c2)cn1 | 24 nM | 135 nM | 28 nM | 23 nM |  |  |  |  |  |  |  |  | 38 nM
Cc1cn(-c2cc(NC(=O)c3ccc(C)c(C#Cc4cnc(NC5CCCCC5)nc4)c3)cc(C(F)(F)F)c2)cn1 | 458 nM | 2710 nM | 93 nM | 30 nM |  |  |  |  |  |  |  |  | 49 nM
Cc1cn(-c2cc(NC(=O)c3ccc(C)c(C#Cc4cnc(NCCO)nc4)c3)cc(C(F)(F)F)c2)cn1 | 19 nM | 1080 nM | 18 nM | 13 nM |  |  |  |  |  |  |  |  | 17 nM
Cc1cn(-c2cc(NC(=O)c3ccc(C)c(C#Cc4cnc(N)nc4)c3)cc(C(F)(F)F)c2)cn1 | 7 nM | 78 nM | 8 nM | 1 nM |  |  |  |  |  |  |  |  | 2 nM
Cc1ccc(NC(=O)c2ccc(CN3CCN(C)CC3)cc2)cc1Nc1nccc(-c2cccnc2)n1 [IMATINIB] |  | > 1000 nM |  | 280 nM |  |  |  |  |  |  |  |  | 
Cc1nc(Nc2ncc(C(=O)Nc3c(C)cccc3Cl)s2)cc(N2CCN(CCO)CC2)n1 [DASATINIB] |  | > 1000 nM |  | 1 nM |  |  |  |  |  |  |  |  | 
Cc1cn(-c2cc(NC(=O)c3ccc(C)c(C#Cc4cnc(N5CCOCC5)nc4)c3)cc(C(F)(F)F)c2)cn1 | > 1000 nM | 8430 nM | 300 nM | 355 nM |  |  |  |  |  |  |  |  | 292 nM
CNc1ncc(C#Cc2cc(C(=O)Nc3cc(-n4cnc(C)c4)cc(C(F)(F)F)c3)ccc2C)cn1 | 6 nM | 85 nM | 10 nM | 7 nM | 48574 µg/L/h | 1.98 min | 35809 µg/L/h | 2 h | 11000 ng/mL | 7.8 h | 7.5 h | 3090 ng/mL | 3 nM
